The text below walks through data of patent US20150291610A1, “C20' Urea Derivatives of Vinca Alkaloids” (THE SCRIPPS RESEARCH INSTITUTE, priority 2012, published 2015).

For data set [1], the system named is L1210 (mouse lymphocytic leukemia) cells. Particulars: reported in Leggans et al., Org. Lett. 2012; cited from earlier work.
Data set [2] concerns HCT116 (human colorectal carcinoma) cells. The settings on record: cited from earlier work; for IC50: reported in Leggans et al., Org. Lett. 2012.
Data set [3] has as its system HCT116/VM46 (vinblastine-resistant strain of HCT116, Pgp over-expression) cells. The settings on record: read-out: IC50 (nM) HCT116/VM46; reported in Leggans et al., Org. Lett. 2012; cited from earlier work.
Data set [4] concerns L1210 (mouse lymphocytic leukemia) cells. In words: Cell growth inhibition assay, L1210. It counts as cell-based. Particulars: L1210 murine leukemia cell line; avg of 4-16 determinations. The protocol:
(§1) A population of cells (>1×10^6 cells/mL as determined with a hemocytometer) was diluted with an appropriate amount of Dulbecco-modified Eagle Medium (DMEM, Gibco) containing 10% fetal bovine serum (FBS, Gibco) to a final concentration of 30,000 cells/mL.
(§2) To each well of a 96-well plate (Corning Costar), 100 μL of the cell-media solution was added with a multichannel pipette. The cultures were incubated at 37° C. in an atmosphere of 5% CO2 and 95% humidified air for 24 hours. The test compounds were added to the plate as follows: test substances were diluted in DMSO to a concentration of 1 mM and 10-fold serial dilutions were performed on a separate 96-well plate. Fresh culture medium (100 μL) was added to each well of cells to constitute 200 μL of medium per well followed by 2 μL of each test agent. Compounds were tested in duplicate (n=2-8 times) at six concentrations between 0-1,000 nM or 0-10,000 nM. Following addition, cultures were incubated for an additional 72 hours.
(§3) The plates were incubated at 37° C. for either 5 minutes (L1210) or 15 minutes (HCT116 and HCT116/VM46).

Data set [5] concerns HCT116 (human colorectal carcinoma) cells. The data set is described as follows: Cell growth inhibition assay, HCT116. It counts as cell-based. Particulars: for fold more potent than vinblastine, HCT116: relative to vinblastine. The protocol:
as §1, §2, §3

Data set [6] deals with HCT116/VM46 (vinblastine-resistant strain of HCT116, Pgp over-expression) cells. In words: Cell growth inhibition assay, HCT116/VM46. The settings on record: for IC50: read-out: IC50 (nM) HCT116/VM46, resistant human colon cancer cell line, Pgp over-expression; for fold improvement over vinblastine, HCT116/VM46: relative to vinblastine. The protocol:
as §1, §2, §3

Where [7] appears, read: HCT116 human colon cancer cell line, avg of 4-16 determinations, read-out: IC50 (nM) HCT116.
Setting [8] is: text values in pM, read-out: IC50 HCT116.

Where two headings read alike, the source gives them in different places.

As for `CCC1CC2CN(CCc3c([nH]c4ccccc34)C(C(=O)OC)(c3cc4c(cc3OC)N(C)C3C(O)(C(=O)OC)C(OC(C)=O)C5(CC)C=CCN6CCC43C65)C2)C1` (centres unmarked) [Compound 3, 20′-deoxyvinblastine], the IC50 in data set [1] is 50 nM; in data set [2], 60 nM; in data set [3] it was 600 nM.
`CC[C@]1(N=C=S)C[C@@H]2CN(CCc3c([nH]c4ccccc34)[C@@](C(=O)OC)(c3cc4c(cc3OC)N(C)[C@H]3[C@@](O)(C(=O)OC)[C@H](OC(C)=O)[C@]5(CC)C=CCN6CC[C@]43[C@@H]65)C2)C1` [Compound 5, 20′-isothiocyano-vinblastine]: the IC50 is 590 nM in data set [1], 530 nM in data set [2] and 7000 nM in data set [3].
As for `CCC1(NC(C)=O)CC2CN(CCc3c([nH]c4ccccc34)C(C(=O)OC)(c3cc4c(cc3OC)N(C)C3C(O)(C(=O)OC)C(OC(C)=O)C5(CC)C=CCN6CCC43C65)C2)C1` (centres unmarked) [Compound 9], the IC50 in data set [1] is 65 nM; in data set [2] it was 90 nM; in data set [3], 7500 nM.
Turning to `CCC1(NC(=O)OC)CC2CN(CCc3c([nH]c4ccccc34)C(C(=O)OC)(c3cc4c(cc3OC)N(C)C3C(O)(C(=O)OC)C(OC(C)=O)C5(CC)C=CCN6CCC43C65)C2)C1` (centres unmarked) [Compound 10], the figures for the IC50 in data set [1], in data set [2] and in data set [3] were 50 nM, 75 nM and 2600 nM, respectively.
With `CC[C@]1(NC(=O)Nc2ccc(C(F)(F)F)cc2)C[C@@H]2CN(CCc3c([nH]c4ccccc34)[C@@](C(=O)OC)(c3cc4c(cc3OC)N(C)[C@H]3[C@@](O)(C(=O)OC)[C@H](OC(C)=O)[C@]5(CC)C=CCN6CC[C@]43[C@@H]65)C2)C1` [Compound 27], the IC50 in data set [4] came to 7.3 nM; in data set [5] (setting [7]), 7.1 nM; in data set [6], 610 nM.
Consider `CCC1(NC(=O)Nc2ccc(OC)cc2)CC2CN(CCc3c([nH]c4ccccc34)C(C(=O)OC)(c3cc4c(cc3OC)N(C)C3C(O)(C(=O)OC)C(OC(C)=O)C5(CC)C=CCN6CCC43C65)C2)C1` (centres unmarked) [Compound 28], for which the IC50 worked out at 4.9 nM in data set [4], 2 nM in data set [5] (setting [7]) and 230 nM in data set [6].
Consider `CC[C@]1(NC(=O)Nc2cccc(OC)c2)C[C@@H]2CN(CCc3c([nH]c4ccccc34)[C@@](C(=O)OC)(c3cc4c(cc3OC)N(C)[C@H]3[C@@](O)(C(=O)OC)[C@H](OC(C)=O)[C@]5(CC)C=CCN6CC[C@]43[C@@H]65)C2)C1` [Compound 29], for which the figures for the IC50 in data set [4], in data set [5] (setting [8]) and in data set [6] were 5.4 nM, 0.77 nM and 80 nM, respectively. In addition, the “fold more potent than vinblastine, HCT116” value in data set [5] is listed as roughly 10 fold. In addition, the “fold improvement over vinblastine, HCT116/VM46” value in data set [6] is on record as 10 fold.
For `CC[C@]1(NC(=O)Nc2ccccc2OC)C[C@@H]2CN(CCc3c([nH]c4ccccc34)[C@@](C(=O)OC)(c3cc4c(cc3OC)N(C)[C@H]3[C@@](O)(C(=O)OC)[C@H](OC(C)=O)[C@]5(CC)C=CCN6CC[C@]43[C@@H]65)C2)C1` [Compound 30], in that order: 4.8 nM, 0.77 nM, 65 nM, roughly 10 fold and 10 fold.
In the case of `CC[C@]1(NC(=O)NCc2ccccc2)C[C@@H]2CN(CCc3c([nH]c4ccccc34)[C@@](C(=O)OC)(c3cc4c(cc3OC)N(C)[C@H]3[C@@](O)(C(=O)OC)[C@H](OC(C)=O)[C@]5(CC)C=CCN6CC[C@]43[C@@H]65)C2)C1` [Compound 31], the IC50 was found to be 6.4 nM in data set [4], 7.3 nM in data set [5] (setting [7]) and 740 nM in data set [6].
Turning to `CC[C@]1(NC(=O)NCCc2ccccc2)C[C@@H]2CN(CCc3c([nH]c4ccccc34)[C@@](C(=O)OC)(c3cc4c(cc3OC)N(C)[C@H]3[C@@](O)(C(=O)OC)[C@H](OC(C)=O)[C@]5(CC)C=CCN6CC[C@]43[C@@H]65)C2)C1` [Compound 32], the figures for the IC50 in data set [4], in data set [5] (setting [7]) and in data set [6] were 6.3 nM, 6.3 nM and 590 nM, respectively.
As to `CC[C@]1(NC(=O)NCc2ccccn2)C[C@@H]2CN(CCc3c([nH]c4ccccc34)[C@@](C(=O)OC)(c3cc4c(cc3OC)N(C)[C@H]3[C@@](O)(C(=O)OC)[C@H](OC(C)=O)[C@]5(CC)C=CCN6CC[C@]43[C@@H]65)C2)C1` [Compound 33], the IC50 in data set [4] was found to be 24 nM; in data set [5] (setting [7]), 5.6 nM; in data set [6], 670 nM.
For `CC[C@]1(NC(=O)NCc2ccco2)C[C@@H]2CN(CCc3c([nH]c4ccccc34)[C@@](C(=O)OC)(c3cc4c(cc3OC)N(C)[C@H]3[C@@](O)(C(=O)OC)[C@H](OC(C)=O)[C@]5(CC)C=CCN6CC[C@]43[C@@H]65)C2)C1` [Compound 34], the IC50 in data set [4] amounted to 5.4 nM; in data set [5] (setting [7]), 5.1 nM; in data set [6], 530 nM.
In the case of `CC[C@]1(NC(=O)N2CCOCC2)C[C@@H]2CN(CCc3c([nH]c4ccccc34)[C@@](C(=O)OC)(c3cc4c(cc3OC)N(C)[C@H]3[C@@](O)(C(=O)OC)[C@H](OC(C)=O)[C@]5(CC)C=CCN6CC[C@]43[C@@H]65)C2)C1` [Compound 41], the IC50 in data set [4] came out at 5.3 nM; in data set [5] (setting [7]), 4.5 nM; in data set [6] it was 360 nM.
`CC[C@]1(NC(=O)N2CCCCC2)C[C@@H]2CN(CCc3c([nH]c4ccccc34)[C@@](C(=O)OC)(c3cc4c(cc3OC)N(C)[C@H]3[C@@](O)(C(=O)OC)[C@H](OC(C)=O)[C@]5(CC)C=CCN6CC[C@]43[C@@H]65)C2)C1` [Compound 42]: the IC50 amounted to 5.5 nM in data set [4], 3.9 nM in data set [5] (setting [7]) and 50 nM in data set [6]. For the same compound, the “activity difference between sensitive HCT116 and vinblastine-resistant HCT116/VM46” value in data set [6] (HCT116/VM46 vs HCT116) was 10 fold.
Regarding `CC[C@]1(O)C[C@@H]2CN(CCc3c([nH]c4ccc(F)cc34)[C@@](C(=O)OC)(c3cc4c(cc3OC)N(C)[C@H]3[C@@](O)(C(=O)OC)[C@H](OC(C)=O)[C@]5(CC)C=CCN6CC[C@]43[C@@H]65)C2)C1` [Compound 48, reference compound], the IC50 in data set [5] (setting [7]) turned out to be 0.8 nM; in data set [6], 80 nM. In data set [2] (Gotoh et al., ACS Med. Chem. Lett. 2011), the “fold improvement in activity over vinblastine” value is on record as 8 fold.
Regarding `CC[C@]1(NC(=O)N2CCSCC2)C[C@@H]2CN(CCc3c([nH]c4ccccc34)[C@@](C(=O)OC)(c3cc4c(cc3OC)N(C)[C@H]3[C@@](O)(C(=O)OC)[C@H](OC(C)=O)[C@]5(CC)C=CCN6CC[C@]43[C@@H]65)C2)C1` [Compound 53], the IC50 in data set [4] is 2.1 nM; in data set [5] (setting [7]), 0.88 nM; in data set [6], 50 nM.
The corresponding values for `CC[C@]1(NC(=O)N2CCN(C)CC2)C[C@@H]2CN(CCc3c([nH]c4ccccc34)[C@@](C(=O)OC)(c3cc4c(cc3OC)N(C)[C@H]3[C@@](O)(C(=O)OC)[C@H](OC(C)=O)[C@]5(CC)C=CCN6CC[C@]43[C@@H]65)C2)C1` [Compound 54] are 7.7 nM, 3.4 nM and 710 nM.
Turning to `CC[C@]1(NC(=O)N2CCC(c3ccccc3)CC2)C[C@@H]2CN(CCc3c([nH]c4ccccc34)[C@@](C(=O)OC)(c3cc4c(cc3OC)N(C)[C@H]3[C@@](O)(C(=O)OC)[C@H](OC(C)=O)[C@]5(CC)C=CCN6CC[C@]43[C@@H]65)C2)C1` [Compound 56], the IC50 in data set [4] is 5.3 nM; in data set [5] (setting [7]), 3.1 nM; in data set [6] it was 55 nM.
For `CC[C@]1(NC(=O)N2Cc3ccc(OC)cc3C2)C[C@@H]2CN(CCc3c([nH]c4ccccc34)[C@@](C(=O)OC)(c3cc4c(cc3OC)N(C)[C@H]3[C@@](O)(C(=O)OC)[C@H](OC(C)=O)[C@]5(CC)C=CCN6CC[C@]43[C@@H]65)C2)C1` [Compound 59], the IC50 in data set [4] turned out to be 0.61 nM; in data set [5] (setting [7]), 0.69 nM; in data set [6] it was 8.7 nM.
